Our source for the LD50 and survival values is ChEMBL document CHEMBL1149795, “5,7-Dihydroxychromone-2-carboxylic acid and it's transition-metal (Mn and Zn) chelates as non-thiol radioprotective agents” (Eur J Med Chem, 2008).

Data set [1] can be described thus: Toxicity against sc dosed NMRI mouse. In kind it is organism-based. The conditions noted are these: in vivo.
Data set [2] concerns Mus musculus. Kind of data set: Radioprotective activity against gamma-irradiation in NMRI mouse assessed as survival at 0.5 mmol/kg, sc administered 24 hrs prior to irradiation measured after 30 days. In kind it is functional. Particulars: light or radiation study.
Data set [3] deals with Mus musculus. Kind of data set: Radioprotective activity against gamma-irradiation in NMRI mouse assessed as survival at 1.0 mmol/kg, sc administered 24 hrs prior to irradiation measured after 30 days. The conditions noted are these: light or radiation study. The class given is functional.
The subject of data set [4] is Mus musculus. In words: Radioprotective activity against gamma-irradiation in NMRI mouse assessed as survival at 0.5 mmol/kg, sc administered 1 hr prior to irradiation measured after 30 days. The class given is functional. The conditions noted are these: light or radiation study.

Consider `O=C(O)c1cc(=O)c2c(O)cc(O)cc2o1`, for which the median lethal dose (LD50) in data set [1] was above 1500 mg/kg. Moreover, the survival at 500 µmol/kg with Mus musculus [2] was 35%. Further, the survival at 1000 µmol/kg in the data set with Mus musculus [3] stood at 50%.
On to `NCCCNCCSP(=O)(O)O` [AMIFOSTINE], for which the LD50 in data set [1] turned out to be 609 mg/kg. In the data set on Mus musculus [4], the survival at 500 µmol/kg turned out to be 81%.
